In patent US20240360177A1, “PEPTIDES WITH ANTIMICROBIAL ACTIVITIES” (priority 2021, published 2024):
In brackets after ≈: the same amount, converted by molar mass. Non-standard residues stand in square brackets, D forms with d. Residues, ends and D or L forms follow the SMILES beside them. Ava = NCCCCC(=O)O

Legend:
[1] = system: C. dubliniensis; details: 24 h
[2] = system: C. parapsilosis; details: 24 h
[3] = system: C. auris; details: 24 h
[4] = system: C. gattii; details: 72 h
[5] = system: C. krusei; details: 24 h
[6] = system: C. neoformans; details: 72 h
[7] = system: C. glabrata; details: 24 h
[8] = system: C. albicans; details: 24 h
[9] = system: Lomentospora prolificans
[10] = system: Scedosporium spp.; details: 72 h
[11] = system: C. tropicalis; details: 24 h

Structure (SMILES)	MIC C. dubliniensis [1] [µg/mL]	MIC C. parapsilosis [2] [µg/mL]	MIC C. auris [3] [µg/mL]	MIC C. gattii [4] [µg/mL]	MIC C. krusei [5] [µg/mL]	MIC C. neoformans [6] [µg/mL]	MIC C. glabrata [7] [µg/mL]	MIC C. albicans [8] [µg/mL]	MIC Range Lomentospora prolificans [9] [µg/mL]	MIC Range Scedosporium spp. [10] [µg/mL]	MIC C. tropicalis [11] [µg/mL]
N=C(N)NCCC[C@@H](N)C(=O)N[C@@H](CCCNC(=N)N)C(=O)N[C@H](CCCNC(=N)N)C(=O)NCCCCC(=O)N[C@H](CCCNC(=N)N)C(=O)N[C@@H](CCCNC(=N)N)C(=O)NCCCCC(=O)N[C@H](CCCNC(=N)N)C(=O)N[C@@H](CCCNC(=N)N)C(=O)N[C@H](CCCNC(=N)N)C(=O)NCCCCC(=O)N[C@H](CCCNC(=N)N)C(=O)N[C@@H](CCCNC(=N)N)C(N)=O [SEQ ID NO: 24, rRr-(Ava)-rR-(Ava)-rRr-(Ava)-rR-NH2] (H-[dR]R[dR][Ava][dR]R[Ava][dR]R[dR][Ava][dR]R-NH2)	1 (≈ 0.533 µM)	0.25 (≈ 0.133 µM)	>32	4 (≈ 2.13 µM)	8 (≈ 4.26 µM)	16 (≈ 8.53 µM)	8 (≈ 4.26 µM)	2 (≈ 1.07 µM)	>32	8 to 32	1 (≈ 0.533 µM)
N=C(N)NCCC[C@@H](N)C(=O)N[C@@H](CCCNC(=N)N)C(=O)NCCCCC(=O)N[C@H](CCCNC(=N)N)C(=O)N[C@@H](CCCNC(=N)N)C(=O)N[C@H](CCCNC(=N)N)C(=O)NCCCCC(=O)N[C@H](CCCNC(=N)N)C(=O)N[C@@H](CCCNC(=N)N)C(=O)NCCCCC(=O)N[C@H](CCCNC(=N)N)C(=O)N[C@@H](CCCNC(=N)N)C(=O)N[C@H](CCCNC(=N)N)C(N)=O [SEQ ID NO: 25, rR-(Ava)-rRr-(Ava)-rR-(Ava)-rRr-NH2] (H-[dR]R[Ava][dR]R[dR][Ava][dR]R[Ava][dR]R[dR]-NH2)	2 (≈ 1.07 µM)	0.5 (≈ 0.266 µM)	>32	4 (≈ 2.13 µM)	16 (≈ 8.53 µM)	32 (≈ 17.1 µM)	8 (≈ 4.26 µM)	4 (≈ 2.13 µM)	>32	16 to 32	2 (≈ 1.07 µM)
N=C(N)NCCC[C@@H](N)C(=O)N[C@@H](CCCNC(=N)N)C(=O)NCCCCC(=O)N[C@H](CCCNC(=N)N)C(=O)N[C@@H](CCCNC(=N)N)C(=O)NCCCCC(=O)N[C@H](CCCNC(=N)N)C(=O)N[C@@H](CCCNC(=N)N)C(=O)N[C@H](CCCNC(=N)N)C(=O)NCCCCC(=O)N[C@H](CCCNC(=N)N)C(=O)N[C@@H](CCCNC(=N)N)C(=O)N[C@H](CCCNC(=N)N)C(N)=O [SEQ ID NO: 26, rR-(Ava)-rR-(Ava)-rRr-(Ava)-rRr-NH2] (H-[dR]R[Ava][dR]R[Ava][dR]R[dR][Ava][dR]R[dR]-NH2)	4 (≈ 2.13 µM)	0.5 (≈ 0.266 µM)	>32	4 (≈ 2.13 µM)	8 (≈ 4.26 µM)	16 (≈ 8.53 µM)	8 (≈ 4.26 µM)	8 (≈ 4.26 µM)	32 (≈ 17.1 µM)	16 to 32	2 (≈ 1.07 µM)
N=C(N)NCCC[C@@H](N)C(=O)N[C@@H](CCCNC(=N)N)C(=O)N[C@H](CCCNC(=N)N)C(=O)NCCCCC(=O)N[C@H](CCCNC(=N)N)C(=O)N[C@@H](CCCNC(=N)N)C(=O)N[C@H](CCCNC(=N)N)C(=O)NCCCCC(=O)N[C@H](CCCNC(=N)N)C(=O)N[C@@H](CCCNC(=N)N)C(=O)NCCCCC(=O)N[C@H](CCCNC(=N)N)C(=O)N[C@@H](CCCNC(=N)N)C(N)=O [SEQ ID NO: 27, rRr-(Ava)-rRr-(Ava)-rR-(Ava)-rR-NH2] (H-[dR]R[dR][Ava][dR]R[dR][Ava][dR]R[Ava][dR]R-NH2)	1 (≈ 0.533 µM)	0.25 (≈ 0.133 µM)	>32	2 (≈ 1.07 µM)	8 (≈ 4.26 µM)	8 (≈ 4.26 µM)	8 (≈ 4.26 µM)	2 (≈ 1.07 µM)	32 (≈ 17.1 µM)	8 to 16	1 (≈ 0.533 µM)
N=C(N)NCCC[C@@H](N)C(=O)N[C@@H](CCCNC(=N)N)C(=O)N[C@H](CCCNC(=N)N)C(=O)N1CCC[C@H]1C(=O)N[C@H](CCCNC(=N)N)C(=O)N[C@@H](CCCNC(=N)N)C(=O)N1CCC[C@H]1C(=O)N[C@H](CCCNC(=N)N)C(=O)N[C@@H](CCCNC(=N)N)C(=O)N[C@H](CCCNC(=N)N)C(=O)N1CCC[C@H]1C(=O)N[C@H](CCCNC(=N)N)C(=O)N[C@@H](CCCNC(=N)N)C(N)=O [SEQ ID NO: 68, rRr-P-rR-P-rRr-P-rR-NH2] (H-[dR]R[dR]P[dR]RP[dR]R[dR]P[dR]R-NH2)	0.5 (≈ 0.267 µM)	0.5 (≈ 0.267 µM)	>32	2 (≈ 1.07 µM)	2 (≈ 1.07 µM)	8 (≈ 4.28 µM)	2 (≈ 1.07 µM)	0.25 (≈ 0.134 µM)	>32	8 (≈ 4.28 µM)	1 (≈ 0.535 µM)
N=C(N)NCCC[C@@H](N)C(=O)N[C@@H](CCCNC(=N)N)C(=O)N[C@H](CCCNC(=N)N)C(=O)N1CCC[C@H]1C(=O)N[C@H](CCCNC(=N)N)C(=O)N[C@@H](CCCNC(=N)N)C(=O)N[C@H](CCCNC(=N)N)C(=O)N1CCC[C@H]1C(=O)N[C@H](CCCNC(=N)N)C(=O)N[C@@H](CCCNC(=N)N)C(=O)N1CCC[C@H]1C(=O)N[C@H](CCCNC(=N)N)C(=O)N[C@@H](CCCNC(=N)N)C(N)=O [SEQ ID NO: 69, rRr-P-rRr-P-rR-P-rR-NH2] (H-[dR]R[dR]P[dR]R[dR]P[dR]RP[dR]R-NH2)	0.25 (≈ 0.134 µM)	0.5 (≈ 0.267 µM)	>32	2 (≈ 1.07 µM)	1 (≈ 0.535 µM)	8 (≈ 4.28 µM)	2 (≈ 1.07 µM)	0.25 (≈ 0.134 µM)	32 (≈ 17.1 µM)	8 to 16	0.5 (≈ 0.267 µM)
N=C(N)NCCC[C@@H](N)C(=O)N[C@@H](CCCNC(=N)N)C(=O)N1CCC[C@H]1C(=O)N[C@H](CCCNC(=N)N)C(=O)N[C@@H](CCCNC(=N)N)C(=O)N[C@H](CCCNC(=N)N)C(=O)N1CCC[C@H]1C(=O)N[C@H](CCCNC(=N)N)C(=O)N[C@@H](CCCNC(=N)N)C(=O)N[C@H](CCCNC(=N)N)C(=O)N1CCC[C@H]1C(=O)N[C@H](CCCNC(=N)N)C(=O)N[C@@H](CCCNC(=N)N)C(N)=O [SEQ ID NO: 71, rR-P-rRr-P-rRr-P-rR-NH2] (H-[dR]RP[dR]R[dR]P[dR]R[dR]P[dR]R-NH2)	1 (≈ 0.535 µM)	0.25 (≈ 0.134 µM)	>32	4 (≈ 2.14 µM)	2 (≈ 1.07 µM)	8 (≈ 4.28 µM)	1 (≈ 0.535 µM)	0.5 (≈ 0.267 µM)	8 (≈ 4.28 µM)	4 to 8	0.5 (≈ 0.267 µM)
N=C(N)NCCC[C@@H](N)C(=O)N[C@@H](CCCNC(=N)N)C(=O)N1CCC[C@H]1C(=O)N[C@H](CCCNC(=N)N)C(=O)N[C@@H](CCCNC(=N)N)C(=O)N[C@H](CCCNC(=N)N)C(=O)N1CCC[C@H]1C(=O)N[C@H](CCCNC(=N)N)C(=O)N[C@@H](CCCNC(=N)N)C(=O)N1CCC[C@H]1C(=O)N[C@H](CCCNC(=N)N)C(=O)N[C@@H](CCCNC(=N)N)C(=O)N[C@H](CCCNC(=N)N)C(N)=O [SEQ ID NO: 72, rR-P-rRr-P-rR-P-rRr-NH2] (H-[dR]RP[dR]R[dR]P[dR]RP[dR]R[dR]-NH2)	2 (≈ 1.07 µM)	0.25 (≈ 0.134 µM)	>32	4 (≈ 2.14 µM)	2 (≈ 1.07 µM)	16 (≈ 8.55 µM)	1 (≈ 0.535 µM)	2 (≈ 1.07 µM)	32 (≈ 17.1 µM)	16 (≈ 8.55 µM)	0.5 (≈ 0.267 µM)
N=C(N)NCCC[C@@H](N)C(=O)N[C@@H](CCCNC(=N)N)C(=O)N1CCC[C@H]1C(=O)N[C@H](CCCNC(=N)N)C(=O)N[C@@H](CCCNC(=N)N)C(=O)N1CCC[C@H]1C(=O)N[C@H](CCCNC(=N)N)C(=O)N[C@@H](CCCNC(=N)N)C(=O)N[C@H](CCCNC(=N)N)C(=O)N1CCC[C@H]1C(=O)N[C@H](CCCNC(=N)N)C(=O)N[C@@H](CCCNC(=N)N)C(=O)N[C@H](CCCNC(=N)N)C(N)=O [SEQ ID NO: 73, rR-P-rR-P-rRr-P-rRr-NH2] (H-[dR]RP[dR]RP[dR]R[dR]P[dR]R[dR]-NH2)	2 (≈ 1.07 µM)	0.5 (≈ 0.267 µM)	>32	2 (≈ 1.07 µM)	2 (≈ 1.07 µM)	8 (≈ 4.28 µM)	1 (≈ 0.535 µM)	1 (≈ 0.535 µM)	32 (≈ 17.1 µM)	8 to 16	1 (≈ 0.535 µM)
